The text below walks through data of ChEMBL document CHEMBL6182948 (J Med Chem, 2025).

The species entered for experiment [1] is Homo sapiens. Nature of the experiment: Selectivity index, ratio of IC50 for human recombinant CYP1A1 to IC50 for human recombinant CYP1B1 using 7-ethoxyresorufin as substrate.
The species entered for experiment [2] is Homo sapiens. The experiment can be described thus: Selectivity index, ratio of IC50 for human recombinant CYP1A2 to IC50 for human recombinant CYP1B1 using 7-ethoxyresorufin as substrate.
For experiment [3], the target named is T1, Cytochrome P450 1A2 (Homo sapiens, UniProt P05177).
T1 sequence (P05177 whole entry): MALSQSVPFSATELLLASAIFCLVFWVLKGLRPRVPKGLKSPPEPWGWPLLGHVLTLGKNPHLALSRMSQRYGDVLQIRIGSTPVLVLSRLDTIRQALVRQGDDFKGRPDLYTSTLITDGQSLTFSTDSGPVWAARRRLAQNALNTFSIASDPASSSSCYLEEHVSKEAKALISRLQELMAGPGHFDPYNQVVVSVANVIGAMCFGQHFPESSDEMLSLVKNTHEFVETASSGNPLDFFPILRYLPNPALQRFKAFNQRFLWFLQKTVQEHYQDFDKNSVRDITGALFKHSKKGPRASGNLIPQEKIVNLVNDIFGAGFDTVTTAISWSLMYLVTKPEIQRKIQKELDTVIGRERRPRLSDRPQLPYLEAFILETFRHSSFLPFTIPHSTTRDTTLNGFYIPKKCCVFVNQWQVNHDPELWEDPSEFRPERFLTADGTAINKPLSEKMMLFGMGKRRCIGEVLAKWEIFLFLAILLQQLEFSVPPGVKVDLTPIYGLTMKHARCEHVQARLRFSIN
The experiment can be described thus: Inhibition of human recombinant CYP1A2 using 7-ethoxyresorufin as substrate incubated under dark condition for 45 mins in presence of NADPH by EROD fluorescence assay. It counts as ADME.

Experiment [4] has as its target T2, Cytochrome P450 1A1 (Homo sapiens, UniProt P04798).
T2 sequence (P04798 whole entry): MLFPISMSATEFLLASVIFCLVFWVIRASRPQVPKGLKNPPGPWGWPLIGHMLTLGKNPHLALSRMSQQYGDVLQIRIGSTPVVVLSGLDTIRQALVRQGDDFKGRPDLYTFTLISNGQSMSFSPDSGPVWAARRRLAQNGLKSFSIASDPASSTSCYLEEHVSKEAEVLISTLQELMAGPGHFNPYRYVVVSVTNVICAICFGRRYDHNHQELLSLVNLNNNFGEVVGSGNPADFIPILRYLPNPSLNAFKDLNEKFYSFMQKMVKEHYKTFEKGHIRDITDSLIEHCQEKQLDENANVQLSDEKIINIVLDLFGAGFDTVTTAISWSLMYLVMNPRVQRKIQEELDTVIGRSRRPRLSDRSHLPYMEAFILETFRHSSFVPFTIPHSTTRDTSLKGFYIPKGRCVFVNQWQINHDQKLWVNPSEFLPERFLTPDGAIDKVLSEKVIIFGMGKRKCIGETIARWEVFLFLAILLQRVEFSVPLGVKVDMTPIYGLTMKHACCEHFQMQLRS
Nature of the experiment: Inhibition of human recombinant CYP1A1 using 7-ethoxyresorufin as substrate incubated under dark condition for 15 mins in presence of NADPH by EROD fluorescence assay. It counts as ADME.

Experiment [5] concerns the target T3, Cytochrome P450 1B1 (Homo sapiens, UniProt Q16678).
T3 sequence (Q16678 whole entry): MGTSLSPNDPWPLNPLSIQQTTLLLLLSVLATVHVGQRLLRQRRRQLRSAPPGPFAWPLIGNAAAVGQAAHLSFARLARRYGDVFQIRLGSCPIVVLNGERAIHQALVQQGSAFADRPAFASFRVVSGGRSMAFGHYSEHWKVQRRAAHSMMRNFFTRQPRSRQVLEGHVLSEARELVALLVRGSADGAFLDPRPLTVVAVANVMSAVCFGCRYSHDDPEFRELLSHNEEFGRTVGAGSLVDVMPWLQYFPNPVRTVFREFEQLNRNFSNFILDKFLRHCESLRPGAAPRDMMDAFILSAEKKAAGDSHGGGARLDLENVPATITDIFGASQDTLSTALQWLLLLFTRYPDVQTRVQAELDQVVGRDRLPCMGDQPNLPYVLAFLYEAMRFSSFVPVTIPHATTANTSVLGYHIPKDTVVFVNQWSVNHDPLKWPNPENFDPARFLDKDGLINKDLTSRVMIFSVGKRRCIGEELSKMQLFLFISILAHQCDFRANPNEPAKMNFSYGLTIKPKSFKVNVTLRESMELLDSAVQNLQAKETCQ
Nature of the experiment: Inhibition of human recombinant CYP1B1 using 7-ethoxyresorufin as substrate incubated under dark condition for 30 mins in presence of NADPH by EROD fluorescence assay. It counts as ADME.

Some results are limits rather than exact numbers.

For orientation: IC50 means the concentration at which inhibition is half-maximal. In the case of `O=C(Nc1ccc(C(F)(F)F)cc1)c1nc(-c2cccc(F)c2)cs1`, the Ratio IC50 in experiment [1] was 426; in experiment [2], 1470. For the same compound, the IC50 in experiment [3] worked out at 0.422 µM; in experiment [4], 0.123 µM; in experiment [5], 0.00029 µM.

Turning to `Cc1ccccc1-c1csc(C(=O)Nc2cc(Cl)cc(Cl)c2)n1`, the Ratio IC50 was 4.3 in experiment [1] and 9.7 in experiment [2]. Further, the concentration for half-maximal inhibition (IC50) in experiment [3] is 0.601 µM; in experiment [4], 0.266 µM; in experiment [5], 0.062 µM.

In the case of `N#Cc1cccc(-c2csc(C(=O)Nc3ccc(C(F)(F)F)cc3)n2)c1`, the Ratio IC50 in experiment [1] was 7.3; in experiment [2], greater than 34100. The results for the IC50 in experiment [3], in experiment [4] and in experiment [5] were greater than 100 µM, 0.0214 µM and 0.00293 µM, respectively.

For `O=C(Nc1ccc(Cl)cc1Cl)c1nc(-c2ccccc2F)cs1`, the Ratio IC50 in experiment [1] is 88.3; in experiment [2] it was 63.6. Moreover, the IC50 in experiment [3] is 0.142 µM; in experiment [4], 0.197 µM; in experiment [5] it was 0.00223 µM.

Take `CC(=O)Nc1ccc(-c2csc(C(=O)Nc3cc(Cl)cc(Cl)c3)n2)cc1`: the Ratio IC50 was 0.7 in experiment [1] and greater than 413 in experiment [2]. Moreover, the IC50 in experiment [3] was greater than 100 µM; in experiment [4] it was 0.167 µM; in experiment [5] it was 0.242 µM.

As for `O=C(Nc1ccc(OC(F)F)cc1)c1nc(-c2ccc(Cl)cc2)cs1`, the results for the Ratio IC50 in experiment [1] and in experiment [2] were 65.1 and 368, respectively. Besides, the values for the IC50 in experiment [3], in experiment [4] and in experiment [5] were 0.33 µM, 0.0583 µM and 0.0009 µM, respectively.

In the case of `O=C(Nc1ccc(C(F)(F)F)cc1)c1nc(-c2cccc(Cl)c2)cs1`, the Ratio IC50 in experiment [1] was found to be 99.6; in experiment [2] it was 1270. In addition, the IC50 in experiment [3] stood at 0.67 µM; in experiment [4] it was 0.0528 µM; in experiment [5], 0.00053 µM.

Turning to `Cc1sc(C(=O)Nc2cc(Cl)cc(Cl)c2)nc1-c1cccc(Cl)c1`, the results for the Ratio IC50 in experiment [1] and in experiment [2] were 25.2 and greater than 5850, respectively. The IC50 was greater than 10 µM in experiment [3], 0.0431 µM in experiment [4] and 0.00171 µM in experiment [5].

In the case of `Cc1sc(C(=O)Nc2ccc(C(F)(F)F)cc2)nc1-c1cccc(Cl)c1`, the Ratio IC50 in experiment [1] was 71.8; in experiment [2], greater than 5320. In addition, the half-inhibitory concentration (IC50) in experiment [3] was greater than 10 µM; in experiment [4], 0.135 µM; in experiment [5], 0.00188 µM.

With `O=C(Nc1ccc(I)cc1)c1nc(-c2cccc(F)c2)cs1`, the Ratio IC50 in experiment [1] came out at 104; in experiment [2], 225. The IC50 in experiment [3] was found to be 0.324 µM; in experiment [4], 0.15 µM; in experiment [5] it was 0.00144 µM.

With `O=C(Nc1cc(Cl)cc(Cl)c1)c1nc(-c2ccc(Br)cc2)cs1`, the Ratio IC50 is greater than 3790 in experiment [1] and 167 in experiment [2]. Moreover, the IC50 in experiment [3] was 4.39 µM; in experiment [4], greater than 100 µM; in experiment [5], 0.0264 µM.

Take `O=C(Nc1cc(Cl)cc(Cl)c1)c1nc(-c2cccc(F)c2)cs1`: the Ratio IC50 in experiment [1] was 105; in experiment [2] it was 1880. The IC50 in experiment [3] is 4.72 µM; in experiment [4], 0.264 µM; in experiment [5], 0.00251 µM.

On to `O=C(Nc1ccc(I)cc1)c1nc(-c2ccc(F)cc2)cs1`, for which the Ratio IC50 in experiment [1] is 31.9; in experiment [2] it was 162. Further, the half-inhibitory concentration (IC50) came out at 0.641 µM in experiment [3], 0.127 µM in experiment [4] and 0.00397 µM in experiment [5].

For the compound `NC(=O)c1cccc(-c2csc(C(=O)Nc3cc(Cl)cc(Cl)c3)n2)c1`, the Ratio IC50 was 116 in experiment [1] and greater than 8640 in experiment [2]. For the same compound, the IC50 in experiment [3] was greater than 100 µM; in experiment [4], 1.34 µM; in experiment [5], 0.0116 µM.

With `Cc1sc(C(=O)Nc2ccc(C(F)(F)F)cc2)nc1-c1cccc(F)c1`, the Ratio IC50 in experiment [1] turned out to be 79.2; in experiment [2], 1100. For the same compound, the IC50 in experiment [3] came out at 2.33 µM; in experiment [4] it was 0.168 µM; in experiment [5], 0.00212 µM.

With `O=C(Nc1ccc(OC(F)F)cc1)c1nc(-c2ccc(F)cc2)cs1`, the Ratio IC50 was 122 in experiment [1] and 1730 in experiment [2]. Also, the values for the IC50 in experiment [3], in experiment [4] and in experiment [5] were 0.82 µM, 0.0581 µM and 0.00047 µM, respectively.

Turning to `O=C(Nc1cc(Cl)cc(Cl)c1)c1nc(-c2ccnc(Cl)c2)cs1`, the Ratio IC50 in experiment [1] is 16; in experiment [2], greater than 23400. In addition, the values for the IC50 in experiment [3], in experiment [4] and in experiment [5] were greater than 100 µM, 0.0683 µM and 0.00428 µM, respectively.

For the compound `O=C(Nc1ccc(OC(F)F)cc1)c1nc(-c2cccc(Cl)c2)cs1`, the Ratio IC50 in experiment [1] worked out at 53.5; in experiment [2], 4500. Further, the values for the IC50 in experiment [3], in experiment [4] and in experiment [5] were 4.69 µM, 0.0557 µM and 0.00104 µM, respectively.

For the compound `COc1ccc(-c2csc(C(=O)Nc3cc(Cl)cc(Cl)c3)n2)cc1`, the figures for the Ratio IC50 in experiment [1] and in experiment [2] were greater than 454 and 77.6, respectively. Also, the IC50 was 17.1 µM in experiment [3], greater than 100 µM in experiment [4] and 0.22 µM in experiment [5].

As for `Cc1sc(C(=O)Nc2ccc(OC(F)F)cc2)nc1-c1cccc(Cl)c1`, the figures for the Ratio IC50 in experiment [1] and in experiment [2] were 41.7 and greater than 32600, respectively. Moreover, the IC50 is greater than 100 µM in experiment [3], 0.128 µM in experiment [4] and 0.00307 µM in experiment [5].

`O=C(Nc1cc(Cl)cc(Cl)c1)c1nc(-c2ccc(O)cc2)cs1`: the Ratio IC50 in experiment [1] is 18.2; in experiment [2] it was 967. Further, the IC50 in experiment [3] was found to be 40.3 µM; in experiment [4], 0.758 µM; in experiment [5], 0.0416 µM.

Regarding `O=C(Nc1ccc(F)cc1F)c1nc(-c2ccc(F)cc2)cs1`, the results for the Ratio IC50 in experiment [1] and in experiment [2] were 437 and 230, respectively. The concentration for half-maximal inhibition (IC50) amounted to 0.213 µM in experiment [3], 0.404 µM in experiment [4] and 0.00093 µM in experiment [5].

For `NC(=O)c1ccc(-c2csc(C(=O)Nc3ccc(OC(F)F)cc3)n2)cc1`, the Ratio IC50 in experiment [1] was determined as 104; in experiment [2] it was 5590. The IC50 in experiment [3] was 5.73 µM; in experiment [4], 0.106 µM; in experiment [5] it was 0.00103 µM.

Consider `O=C(Nc1ccc(C(F)(F)F)cc1)c1nc(-c2ccc(F)cc2)cs1`, for which the Ratio IC50 in experiment [1] was 323; in experiment [2], 567. Besides, the concentration for half-maximal inhibition (IC50) in experiment [3] was 0.608 µM; in experiment [4], 0.346 µM; in experiment [5], 0.00107 µM.

For the compound `Nc1ccc(-c2csc(C(=O)Nc3cc(Cl)cc(Cl)c3)n2)cc1`, the Ratio IC50 in experiment [1] came to 6.8; in experiment [2], 58.7. Also, the IC50 in experiment [3] came out at 8.34 µM; in experiment [4], 0.962 µM; in experiment [5], 0.142 µM.

`O=C(Nc1ccc(C(F)(F)F)cc1)c1nc(-c2ccc(Cl)cc2)cs1`: the Ratio IC50 came to 142 in experiment [1] and 510 in experiment [2]. The IC50 worked out at 0.248 µM in experiment [3], 0.0692 µM in experiment [4] and 0.00049 µM in experiment [5].

`O=C(Nc1cc(Cl)cc(Cl)c1)c1nc(-c2ccc(I)cc2)cs1`: the Ratio IC50 was greater than 445 in experiment [1] and 71 in experiment [2]. Further, the IC50 in experiment [3] was 1.59 µM; in experiment [4], greater than 10 µM; in experiment [5], 0.0225 µM.

For the compound `Cc1ccc(-c2csc(C(=O)Nc3cc(Cl)cc(Cl)c3)n2)cc1`, the figures for the Ratio IC50 in experiment [1] and in experiment [2] were 55.1 and 1430, respectively. Moreover, the IC50 in experiment [3] is 14.7 µM; in experiment [4] it was 0.566 µM; in experiment [5] it was 0.0103 µM.
